molecular target: human recombinant H-PGDS (Homo sapiens, UniProt O60760); assay: Slightly modified fluorescence intensity h-PGDS TBA enzyme assay (1:40,000 enzyme, 40 second reaction, 1/2 log dilutions, top concentration typically 10 μM); assay type: biochemical; conditions: slightly modified assay: 1:40,000 human recombinant H-PGDS
Protocol: Fluoresecence Intensity h-PGDSTBA Enzyme Assay
Prostaglandin D Synthase (PGDS) converts the substrate prostaglandin H2 (PGH2) to prostaglandin D2. The depletion of PGH2 was measured via an Fe(II) reduction of the remaining PGH2 to malondialdehyde (MDA) and 12-HHT. The enzyme assay is based on the quantitative formation of a fluorescent complex from the non-fluorescent compounds MDA and 2-thiobarbituric acid (TBA), substantially as described in U.S. patent application publication US-2004/152148 by Lombardt.
Examples 6-8, 11a-16, 23, 26-47, 49-103, 105-113, 115-118 and 126-128 were tested in a slightly modified assay: The enzyme assay (30 μls during biological process) contained 100 mM Trizma pH 8.0, 100 μM MgCl2, 0.1 mg/ml IgG Rabbit serum, 5.0 μM PGH2 (Cayman; ethanol solution, #17020), 2.5 mM L-Glutathione (Sigma; reduced form #G4251), 1:40,000 human recombinant H-PGDS (from 1 mg/ml), 0.5% DMSO and inhibitor (varying concentration). 3 μls of diluted inhibitor (dissolved in DMSO) was plated into a 384-well assay plate followed by a 24 μl addition of an enzyme solution containing h-PGDS, Trizma, MgCl2, IgG and L-Glutathione. After pre-incubation of inhibitor and enzyme solution for 10 minutes at room temperature, the reaction was initiated with a 3 μl addition of substrate solution in 10 mM HCl. The reaction was terminated after 40 second by the addition of 3 μl stop buffer containing FeCl2 and citric acid. After addition of 45 μls of TBA plates were heated for one hour in a 70° C. oven. Plates were cooled at room temperature overnight and read on a plate reader the next day with excitation @ 530 nm and emission @ 560 nm. IC50' s of inhibitors were calculated with a 4-parameter fit using 11 inhibitor concentrations in duplicate with ½ log serial dilutions. Controls on each plate included no inhibitor (zero % effect) and an inhibitor 500-fold in excess of its' IC50 (100% effect). The highest inhibitor concentration tested was typically 10 μM.

human recombinant H-PGDS, sequence (O60760 whole entry): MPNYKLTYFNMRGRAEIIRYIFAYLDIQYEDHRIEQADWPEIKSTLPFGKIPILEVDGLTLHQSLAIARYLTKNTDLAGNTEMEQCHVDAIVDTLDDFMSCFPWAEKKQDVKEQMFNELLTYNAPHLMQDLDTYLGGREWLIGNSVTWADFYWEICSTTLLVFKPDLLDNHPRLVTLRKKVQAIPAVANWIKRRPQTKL

| SMILES | IC50 [nM] |
| --- | --- |
| O=C(N[C@H]1CCC[C@@H](C(=O)NCCN2CCCCC2)C1)c1ccc(-c2cccc(F)c2)nc1 (relative stereo) [Example 64I, 6-(3-fluorophenyl)-N-{cis-3-[(2-piperidin-1-ylethyl)carbamoyl]cyclohexyl}nicotinamide] | 11.1 |
| CCN1CCC(CNC(=O)[C@@H]2CCC[C@H](NC(=O)c3ccc(-c4cccc(F)c4)nc3)C2)C1 (relative stereo) [Example 64J, N-[cis-3-{[(1-ethylpyrrolidin-3-yl)methyl]carbamoyl}cyclohexyl]-6-(3-fluorophenyl)nicotinamide] | 19.6 |
| CCN1CCC(NC(=O)[C@@H]2CCC[C@H](NC(=O)c3ccc(-c4cccc(F)c4)nc3)C2)CC1 (relative stereo) [Example 64M, N-{cis-3-[(1-ethylpiperidin-4-yl)carbamoyl]cyclohexyl}-6-(3-fluorophenyl)nicotinamide] | 509 |
| O=C(NC1CCC(N2CCOCC2)CC1)c1ccc(-c2cccc(F)c2)nc1 (single isomer, unassigned) [Example 49, 6-(3-Fluorophenyl)-N-(4-morpholin-4-ylcyclohexyl)nicotinamide] | 69.2 |
| O=C(NC1CCC(N2CCOCC2)CC1)c1ccc(-c2cccc(F)c2)nc1 (single isomer, unassigned) [Example 50, 6-(3-Fluorophenyl)-N-(4-morpholin-4-ylcyclohexyl)nicotinamide] | 5.76 |
| CN1CCN(C2CCC(NC(=O)c3ccc(-c4cccc(F)c4)nc3)CC2)CC1 (single isomer, unassigned) [Example 51, 6-(3-Fluorophenyl)-N-[-4-(4-methylpiperazin-1-yl)cyclohexyl]nicotinamide] | 172 |
| CN1CCN(C2CCC(NC(=O)c3ccc(-c4cccc(F)c4)nc3)CC2)CC1 (single isomer, unassigned) [Example 52, 6-(3-Fluorophenyl)-N-[-4-(4-methylpiperazin-1-yl)cyclohexyl]nicotinamide] | 39.1 |
| COCCNC1CCC(NC(=O)c2ccc(-c3cccc(F)c3)nc2)CC1 (single isomer, unassigned) [Example 54, 6-(3-Fluorophenyl)-N-{4-[(2-methoxyethyl)amino]cyclohexyl}nicotinamide] | 87.2 |
| COCCNC1CCC(NC(=O)c2ccc(-c3cccc(F)c3)nc2)CC1 (single isomer, unassigned) [Example 55, 6-(3-Fluorophenyl)-N-{4-[(2-methoxyethyl)amino]cyclohexyl}nicotinamide] | 18.5 |
| O=C(NC1CCC(NC2CCOC2)CC1)c1ccc(-c2cccc(F)c2)nc1 (single isomer, unassigned) [Example 56, 6-(3-Fluorophenyl)-N-[-4-(tetrahydrofuran-3-ylamino)cyclohexyl]nicotinamide] | 30.6 |
| O=C(NC1CCC(NC2CCOC2)CC1)c1ccc(-c2cccc(F)c2)nc1 (single isomer, unassigned) [Example 57, 6-(3-Fluorophenyl)-N-[-4-(tetrahydrofuran-3-ylamino)cyclohexyl]nicotinamide] | 32 |
| COCCN(C)C1CCC(NC(=O)c2ccc(-c3cccc(F)c3)nc2)CC1 (single isomer, unassigned) [Example 58, 6-(3-Fluorophenyl)-N-{4-[(2-methoxyethyl)(methyl)amino]cyclohexyl}nicotinamide] | 307 |
| COCCN(C)C1CCC(NC(=O)c2ccc(-c3cccc(F)c3)nc2)CC1 (single isomer, unassigned) [Example 59, 6-(3-Fluorophenyl)-N-{4-[(2-methoxyethyl)(methyl)amino]cyclohexyl}nicotinamide] | 30.5 |
| O=C(NC1CCC(N2CC[C@@H](O)C2)CC1)c1ccc(-c2cccc(F)c2)nc1 (single isomer, unassigned) [Example 60] | 111 |
| O=C(NC1CCC(N2CC[C@@H](O)C2)CC1)c1ccc(-c2cccc(F)c2)nc1 (single isomer, unassigned) [Example 61] | 45 |
| O=C(NC1CCC(c2ncc[nH]2)CC1)c1ccc(-c2cccc(F)c2)nc1 (single isomer, unassigned) [Example 63, 6-(3-Fluorophenyl)-N-[4-(1H-imidazol-2-yl)cyclohexyl]nicotinamide] | 13 |
| O=C(NC1CCC(c2ncc[nH]2)CC1)c1ccc(-c2cccc(F)c2)nc1 (single isomer, unassigned) [Example 64, 6-(3-Fluorophenyl)-N-[4-(1H-imidazol-2-yl)cyclohexyl]nicotinamide] | 6.2 |
| O=C(NC1CC1)c1ccc(-c2cccc(F)c2)nc1 [Example 6, N-Cyclopropyl-6-(3-fluoro-phenyl)-nicotinamide] | 159 |
| CN(C)C[C@H]1C[C@@H](NC(=O)c2ccc(-c3cccc(F)c3)nc2)C1 [Example 7] | 292 |
| O=C(N[C@H]1CCC[C@H]1C(=O)O)c1ccc(-c2cccc(F)c2)nc1 [Example 8] | 1720 |
| O=C(N[C@@H]1CC[C@H](C(=O)O)C1)c1ccc(-c2cccc(F)c2)nc1 [Example 11a, (1S,3R)-3-({[6-(3-Fluorophenyl)pyridin-3-yl]carbonyl}amino)cyclopentanecarboxylic acid] | 125 |
| O=C(N[C@H]1CC[C@@H](C(=O)O)C1)c1ccc(-c2cccc(F)c2)nc1 [Example 11b, (1R,3S)-3-({[6-(3-Fluorophenyl)pyridin-3-yl]carbonyl}amino)cyclopentanecarboxylic acid] | 13.7 |
| CN1CCN(C(=O)[C@H]2CC[C@@H](NC(=O)c3ccc(-c4cccc(F)c4)nc3)C2)CC1 [Example 12, 6-(3-Fluorophenyl)-N-{(1R,3S)-3-[(4-methylpiperazin-1-yl)carbonyl]cyclopentyl}nicotinamide] | 11.2 |
| O=C(N[C@@H]1CC[C@H](C(=O)N2CCNCC2)C1)c1ccc(-c2cccc(F)c2)nc1 [Example 13, 6-(3-Fluorophenyl)-N-[(1R,3S)-3-(piperazin-1-ylcarbonyl)cyclopentyl]nicotinamide] | 16.5 |
| O=C(N[C@@H]1CC[C@H](C(=O)N2CCC(O)CC2)C1)c1ccc(-c2cccc(F)c2)nc1 [Example 14, 6-(3-Fluorophenyl)-N-{(1R,3S)-3-[(4-hydroxypiperidin-1-yl)carbonyl]cyclopentyl}nicotinamide] | 7.48 |
| O=C(N[C@@H]1CC[C@H](C(=O)N2CC[C@H](O)C2)C1)c1ccc(-c2cccc(F)c2)nc1 [Example 15, 6-(3-Fluorophenyl)-N-[(1R,3S)-3-{[(3S)-3-hydroxypyrrolidin-1-yl]carbonyl}cyclopentyl]nicotinamide] | 10.3 |
| N[C@H]1CCN(C(=O)[C@H]2CC[C@@H](NC(=O)c3ccc(-c4cccc(F)c4)nc3)C2)C1 [Example 16, N-[(1R,3S)-3-{[(3S)-3-Aminopyrrolidin-1-yl]carbonyl}cyclopentyl]-6-(3-fluorophenyl)nicotinamide] | 29.1 |
| NC1CCC(NC(=O)c2ccc(-c3cccc(F)c3)nc2)CC1 (stereo not drawn) [Example 44, N-(4-Aminocyclohexyl)-6-(3-fluorophenyl)nicotinamide] | 67.5 |
| CSc1nccn1C1CCC(NC(=O)c2ccc(-c3cccc(F)c3)nc2)CC1 (stereo not drawn) [Example 45, 6-(3-Fluorophenyl)-N-{4-[2-(methylthio)-1H-imidazol-1-yl]cyclohexyl}nicotinamide] | 10.5 |
| CC(=O)NC1CCC(NC(=O)c2ccc(-c3cccc(F)c3)nc2)CC1 (stereo not drawn) [Example 46, N-(4-Acetamidocyclohexyl)-6-(3-fluorophenyl)nicotinamide] | 10.7 |

Source: patent US20100173888A1 (Pfizer Inc, priority 2008, published 2010)
